We go through one compound from PMC10544575, “Inhibitory mechanism of vortioxetine on CYP450 enzymes in human and rat liver microsomes” (Frontiers in Pharmacology, 2023).

Like-named read-outs stand apart in the source and are kept apart here.

What all share (type): in vitro ADME
In one series the test system is CYP2B. The series is described as follows: IC50 of vortioxetine on CYP2B (bupropion) in RLMs. The settings on record: rat, rat liver microsomes, probe bupropion. The procedure:
(§1) The components of the incubation system were as follows: 0.20 mg/mL HLMs or 0.20 mg/mL RLMs, 0.1 M Tris-HCl, vortioxetine, and the probe substrates of each enzyme. In the study of Km’s (Michaelis–Menten constant) experiment, midazolam (1, 2, 5, 10, 20, 50 and 100 μM in HLMs and RLMs) corresponded to CYP3A4/3A; bupropion (10, 20, 50, 100, 200, 500, 1,000 and 2000 μM in HLMs; 1, 2, 5, 10, 20, 50, 100 and 200 μM in RLMs) corresponded to CYP2B6/2B; amodiaquine (5, 10, 20, 50, 100 and 200 μM in HLMs; 10, 20, 50, 100, 200, 500 μM in RLMs) corresponded to CYP2C8/CYP2C-1; losartan (1, 2, 5, 10, 20, 50, 100, 200 μM in HLMs; 10, 20, 50, 100, 200, 500 and 1,000 μM in RLMs) corresponded to CYP2C9/CYP2C-2; mephenytoin (20, 50, 100, 200, 500 and 1,000 μM in HLMs; 5, 10, 20, 50, 100, 200, 500 and 1,000 μM in RLMs) corresponded to CYP2C19/CYP2C-3; and dextromethorphan (1, 2, 5, 10, 20, 50 and 100 μM in HLMs and RLMs) corresponded to CYP2D6/CYP2D. […]
(§2) All experiments results were detected by UPLC-MS/MS, which equipped with a Waters Acquity UPLC system (Milford, MA, United States) and a Waters Xevo TQ-S triple quadrupole tandem mass spectrometer with an electrospray ionization source (Milford, MA, United States). […]
(§3) IC50 values and enzyme kinetic parameters were calculated by Graphpad Prism 6.0 (GraphPad software Inc., CA, United States). […] Data for each experiment were expressed as mean ± SD (n = 3).
(Liver microsomes are vesicles of endoplasmic reticulum, rich in cytochrome P450 enzymes.)

A further series has as its system CYP2C-2. Put plainly: IC50 of vortioxetine on CYP2C-2 (losartan) in RLMs. The conditions noted are these: rat, rat liver microsomes, probe losartan. Here is the method: as §1, §2, §3
Another series has as its system CYP2C-3. The series is described as follows: IC50 of vortioxetine on CYP2C-3 (mephenytoin) in RLMs. The settings on record: rat, rat liver microsomes, probe mephenytoin. The procedure:
as §1, §2, §3

The target in series [1] is T1, CYP2C9 (Homo sapiens, UniProt P11712). Put plainly: IC50 of vortioxetine on CYP2C9 (losartan) in HLMs. Also noted: 0.20 mg/mL HLMs; from tissue; host or cells: human liver microsomes. The procedure: as §1, §2, §3
Series [2] deals with T1, CYP2C9. The series is described as follows: Reversible inhibition kinetics (Lineweaver-Burk), CYP2C9 in HLMs. The conditions noted are these: losartan. Details: 0.20 mg/mL HLMs; from tissue; host or cells: human liver microsomes. The procedure: (§4) The components of the incubation system were as follows: 0.20 mg/mL HLMs or 0.20 mg/mL RLMs, 0.1 M Tris-HCl, vortioxetine, and the probe substrates of each enzyme. In the study of Km’s (Michaelis–Menten constant) experiment, midazolam (1, 2, 5, 10, 20, 50 and 100 μM in HLMs and RLMs) corresponded to CYP3A4/3A; bupropion (10, 20, 50, 100, 200, 500, 1,000 and 2000 μM in HLMs; 1, 2, 5, 10, 20, 50, 100 and 200 μM in RLMs) corresponded to CYP2B6/2B; amodiaquine (5, 10, 20, 50, 100 and 200 μM in HLMs; 10, 20, 50, 100, 200, 500 μM in RLMs) corresponded to CYP2C8/CYP2C-1; losartan (1, 2, 5, 10, 20, 50, 100, 200 μM in HLMs; 10, 20, 50, 100, 200, 500 and 1,000 μM in RLMs) corresponded to CYP2C9/CYP2C-2; mephenytoin (20, 50, 100, 200, 500 and 1,000 μM in HLMs; 5, 10, 20, 50, 100, 200, 500 and 1,000 μM in RLMs) corresponded to CYP2C19/CYP2C-3; and dextromethorphan (1, 2, 5, 10, 20, 50 and 100 μM in HLMs and RLMs) corresponded to CYP2D6/CYP2D. After 5.0 min of preincubation in the shaking water bath, the reaction was started with the addition of 1.0 mM NADPH. The incubated temperature at 37°C for 30 min. After the incubation, the enzyme reaction was stopped by cooling at −80°C, and 200 μL of acetonitrile and 20 μL of internal standard diazepam (200 ng/mL) were added for protein precipitation. The solution was fully vortexed and centrifuged at 13,000 × rpm for 10 min, and the supernatant was collected for data analysis by UPLC-MS/MS.
The inhibitory mechanism of the inhibitor on the enzyme was generally used by different concentrations of the inhibitor against different concentrations of the probe substrate. The concentrations of the inhibitor and the concentrations of probe substrates in the experiment were estimated based on IC50 and Km values, respectively.
In HLMs, the concentrations of the substrates midazolam, bupropion, amodiaquine, losartan, mephenytoin, and dextromethorphan were 1, 2, 4, 8 μM; 10, 20, 40, 80 μM; 0.8, 1.5, 3, 6 μM; 2, 4, 8, 16 μM; 20, 45, 90, 180 μM; 2.5, 5, 10, 20 μM, respectively. Corresponding to the concentration of vortioxetine were 2, 4, 9, 18 μM; 2, 4, 8, 16 μM; 4, 8, 15, 30 μM; 5, 10, 25, 50 μM; 0.6, 1.2, 2.5, 5 μM; 4.5, 9, 18, 36 μM, respectively.
All experiments results were detected by UPLC-MS/MS, which equipped with a Waters Acquity UPLC system (Milford, MA, United States) and a Waters Xevo TQ-S triple quadrupole tandem mass spectrometer with an electrospray ionization source (Milford, MA, United States). The chromatographic separation was performed on a Waters ACQUITY UPLC BEH C18 column (2.1 × 50 mm, 1.7 μm, Waters Corp.) at 40°C. […]
as §3

Another series concerns the target CYP3A4 (Homo sapiens, UniProt P08684). The series is described as follows: IC50-shift experiment, CYP3A4 in HLMs. Details: 0.20 mg/mL HLMs or 0.20 mg/mL RLMs; from tissue; host or cells: human liver microsomes. The settings on record: for IC50: midazolam 4 μM. Here is the method:
as §4, with “The solution was fully vortexed and centrifuged at 13,000 × rpm for 10 min, and the supernatant was collected for data analysis by UPLC-MS/MS.” left out
IC50-shift was used to investigate whether the drug produced time-dependent inhibition (TDI) of the enzyme. […] During the experiment, the individual substrates midazolam (4 μM), bupropion (40 μM), amodiaquine (3 μM), losartan (8 μM), mephenytoin (90 μM), and dextromethorphan (10 μM) were determined with vortioxetine IC50-shift in HLMs. […]
as §2, §3

Where [3] appears, read: inhibitory effect (strength judged by IC50), RLMs.

T1 sequence (P11712 whole entry): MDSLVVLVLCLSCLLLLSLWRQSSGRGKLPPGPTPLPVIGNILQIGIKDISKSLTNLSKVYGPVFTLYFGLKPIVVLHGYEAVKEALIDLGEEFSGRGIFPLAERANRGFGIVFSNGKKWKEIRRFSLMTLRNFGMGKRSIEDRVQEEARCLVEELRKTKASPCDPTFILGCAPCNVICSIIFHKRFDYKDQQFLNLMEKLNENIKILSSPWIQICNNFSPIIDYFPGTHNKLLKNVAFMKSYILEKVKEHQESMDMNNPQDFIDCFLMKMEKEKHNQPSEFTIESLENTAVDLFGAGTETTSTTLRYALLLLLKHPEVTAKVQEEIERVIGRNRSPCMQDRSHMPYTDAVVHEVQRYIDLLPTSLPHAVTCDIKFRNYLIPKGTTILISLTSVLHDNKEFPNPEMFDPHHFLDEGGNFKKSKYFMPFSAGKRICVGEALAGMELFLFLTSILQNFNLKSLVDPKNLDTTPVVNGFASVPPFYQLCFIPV
CYP3A4, sequence (P08684 whole entry): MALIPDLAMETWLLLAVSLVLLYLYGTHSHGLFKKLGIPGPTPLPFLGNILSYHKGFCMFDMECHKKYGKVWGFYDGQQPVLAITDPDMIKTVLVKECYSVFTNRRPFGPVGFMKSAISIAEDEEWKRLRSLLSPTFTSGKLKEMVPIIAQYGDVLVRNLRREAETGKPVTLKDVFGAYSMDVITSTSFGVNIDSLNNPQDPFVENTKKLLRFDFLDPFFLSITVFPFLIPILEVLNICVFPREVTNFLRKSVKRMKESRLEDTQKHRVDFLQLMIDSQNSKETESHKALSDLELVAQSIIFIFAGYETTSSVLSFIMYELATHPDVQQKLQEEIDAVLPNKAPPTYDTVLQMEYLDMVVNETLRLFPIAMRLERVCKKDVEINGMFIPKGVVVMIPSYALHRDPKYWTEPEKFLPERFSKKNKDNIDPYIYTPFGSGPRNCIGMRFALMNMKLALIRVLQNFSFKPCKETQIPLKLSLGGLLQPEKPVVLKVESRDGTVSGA

Take `Cc1ccc(Sc2ccccc2N2CCNCC2)c(C)c1` [vortioxetine]: the IC50 at 30 min in the series with CYP2B (RLMs 0.20 mg/mL, bupropion at Km, 37°C, 30 min, read-out: IC50) is 8.89 µM; in the series with CYP2B (setting [3]), 1 to 10 µM; in the series with CYP2C-2 (RLMs 0.20 mg/mL, losartan at Km, 37°C, 30 min, read-out: IC50), 0.37 µM; with CYP2C-2 (setting [3]) it was below 1 µM; with CYP2C-3 (RLMs 0.20 mg/mL, mephenytoin at Km, 37°C, 30 min, read-out: IC50) it was 20.3 µM; in the series on CYP2C-3 (setting [3]), above 10 µM. In addition, the IC50 at CYP2C9 [1] (HLMs 0.20 mg/mL, losartan at Km, 37°C, 30 min, read-out: IC50) was 23 µM; at CYP2C9 [1] (inhibitory effect (strength judged by IC50), HLMs) it was above 10 µM; on CYP3A4 (30 min preincubation with 1.0 mM NADPH), 13.7 µM; at CYP3A4 (30 min preincubation without NADPH), 15.5 µM. On CYP2C9 [2], this compound registered a Ki of 4.17 µM. Further, the α at CYP2C9 [2] is given as 15.94. Also, the Inhibition type result on CYP2C9 [2] (Lineweaver-Burk plot) is given as “mixed inhibition”. In addition, the αKi at CYP2C9 [2] (secondary plot of y-intercepts) was 66.5 µM. Also, at CYP3A4 (human, human liver microsomes, probe midazolam (4 μM), ratio IC50 (−) NADPH to IC50 (+) NADPH, read-out: IC50 fold shift), the IC50 shift at 30 min turned out to be 1.14.

By IC50 is commonly meant the concentration that inhibits the measured activity by half. In general, Ki refers to a measure of affinity in units of concentration, obtained from inhibition or displacement.
